Source: US20230348538A1, “METHOD FOR TREATMENT OF DRY EYE COMPRISNG APPLYING P55PIK INHIBITOR” (Wuhan Yicheng Biological Technology Co., Ltd., priority 2020, published 2023)
“Also recorded” adds a separate entry of the source.

Columns and labels:
[1] = tested on: rat model of dry eye induced by corneal epithelial injury; test: Rat model of dry eye induced by corneal epithelial injury: corneal epithelial injury score (sodium fluorescein, slit lamp); format: in vivo, SD rats
Protocol: Grouping and administration: the eighteen rats were then randomly divided into three groups, with 6 laboratory rats in each group (male and female in equal numbers); Group 1 was the blank control group and received no treatment; Group 2 was the solvent control group and was treated with solvent eye drops that contained a solvent but no TAT-N16 peptide; Group 3 was the drug treatment group and was treated with eye drops comprising 0.1% TAT-N16 peptide; the eye drops were administered four times a day (1 drop/time) for 7 days; the corneal epithelial injury was evaluated on days 0, 4 and 7 after treatment.
Detection method and scoring criteria: corneal staining was performed by injecting 1 drop pf sodium fluorescein into the conjunctival sac using the 5 mL sterile syringe with the […] needle; the corneal epithelium was observed under the blue light from the slit lamp after 5 minutes; and the scoring criteria were shown in Table 1.

[2] = tested on: rat model of dry eye caused by low tear secretion; test: Rat model of dry eye caused by low tear secretion (atropine): lacrimal secretion test (Schirmer's test II); format: in vivo, SD rats
Protocol: 1.2.2 Modeling: a rat model of dry eye caused by low tear secretion, was established using the Burgalassi method of atropine injection into the lacrimal glands; eighteen laboratory rats, with equal numbers of male and female, were given 0.4% oxybucaine hydrochloride eye drops in both eyes and injected with 0.25 mL of 0.5 mg/mL atropine into the lacrimal glands four times a day for both eyes; the results of lacrimal secretion test were recorded 0.5 hours after the atropine injection every day; and the atropine injection was continued until the 7th day.
Grouping and administration: six laboratory rats, with equal numbers of male and female, were used as the normal control group and were not modeled; the eighteen successfully modeled laboratory rats were randomly divided into three model groups, with 6 rats in each model group, half male and half female; Model group 1 was the blank control group and received no treatment; Model group 2 was the solvent control group and treated with solvent eye drops that contained a solvent but no TAT-N16 peptide; Model group 3 was the drug treatment group and was treated with eye drops comprising 0.1% TAT-N16 peptide; the eye drops was administered four times a day (1 drop/time) for 7 days; the amount of the lacrimal secretion of each eye was recorded on days 0, 4 and 7 after treatment; the expression levels of P55PIK gene and p55PIK protein in the rat eyes of the normal control group and the model groups were detected.
1.2.2.1 Lacrimal secretion test (Schirmer's test II): due to the smaller eyeballs of SD rats compared to human, the Schirmer tear test strips designed for human use were not suitable for use in the SD rats; therefore, the Schirmer's test II was conducted by cutting a 5 mm x 35 mm Schirmer tear test strip into two strips of 2.5 mm×35 mm each, folding the front end, and lightly placing the Schirmer tear test strip at the junction of the posterior-middle ⅓ of the lower eyelid; after 5 minutes, the Schirmer tear test strips were removed; and the length of the Schirmer tear test strips wetted by tears were measured for 2 minutes and the measurement was repeated three times to obtain an average value; the results were recorded before the treatment, and on the 4th and 7th day after treatment.

[3] = tested on: dry eye model induced by 0.2% benzalkonium chloride solution; test: Benzalkonium chloride dry eye model: conjunctival goblet cells (PAS staining); format: in vivo, C57BL/6 mice
Protocol: The healthy male C57BL/6 mice were kept in a controlled environment with a temperature of (25±1)° C., a relative humidity of (25±5)%, and light-dark cycles (9 AM-9 PM) with simulated dawn and dusk. Forty mice (80 eyes) were treated with 5 μL of 0.2% benzalkonium chloride solution twice a day (8:00 AM and 6:00 PM) for 14 days to induce dry eye symptoms, while the remaining ten mice (20 eyes) received no treatment and served as a baseline control. […] Group A, the drug treatment group, was treated with the eye drops comprising 0.1% TAT-[…] peptide, four times a day; Group B, the solvent control group, was treated with eye drops without TAT-[…] peptide, four times a day; and Group C, the blank control group, received no treatment; on days 1, 4, and 7 after treatment, BUT, Schirmer's test I, and fluorescein sodium staining were performed; on the 7th day, the paraffin sections of the conjunctival fornix was stained by PAS stain; and the number of PAS-positive goblet cells was counted.

[4] = tested on: rabbit model of dry eye (0.1% benzalkonium chloride); test: Rabbit model of dry eye: tear film break-up time test; format: in vivo, New Zealand white rabbits
Protocol: (§1) 1.2.1 Grouping: thirty New Zealand white rabbits were randomly divided into three groups, each comprising 10 rabbits: a blank control group, a solvent control group, and a drug treatment group.
(§2) 1.2.2 Preparation of a rabbit model of dry eye: the right eye of each rabbit was used to establish a dry eye rabbit model by administering 0.1% benzalkonium chloride eye drops twice a day for 4 weeks. After 4 weeks, the dry eye rabbit model was evaluated, with the conjunctiva appearing dry, tear production being reduced, and Schirmer test values being less than 10 mm/5 min (compared to the control group, where all Schirmer test values were above 10 mm).
1.2.3 Drug preparation and usage: a liquid formulation of 0.1% TAT-N16 peptide eye drops were prepared by dissolving the peptide raw materials in physiological saline according to a weight ratio of 0.1%. The eye drops comprising 0.1% TAT-N16 peptide were administered 2 drops, 3 times a day for 7 days. […]
1.3 Specimen collection and animal testing were conducted by the same individual. […] The rabbit conjunctiva appearance, fluorescein staining, tear film break-up time were analyzed using a slit lamp before and on days 4 and 7 after treatment; additionally, the Schirmer's test and conjunctival impression cytology (CIC) were carried out.
1.3.2 Tear film break-up time test: the fluorescein sodium ophthalmic strips were placed on the lower conjunctival sac for a moment, so that the fluorescein sodium was evenly distributed on the ocular surface; the eyelid was maintained open and observed under cobalt blue filter on a slit lamp; the tear film break-up time was recorded as the number of seconds that elapse between the last blink and the appearance of the first dry spot in the tear film of the cornea; The time from the opening of the eyelid to the appearance of the first dry spot on the tear film was recorded under a slit lamp microscope with cobalt blue light; each eye was measured three times, and the average of the three measurements was recorded in seconds.

[5] = tested on: rabbit model of dry eye (0.1% benzalkonium chloride); test: Rabbit model of dry eye: conjunctiva appearance and fluorescein staining; format: in vivo, New Zealand white rabbits
Protocol: as §1, §2
1.2.3 Drug preparation and usage: a liquid formulation of 0.1% TAT-N16 peptide eye drops were prepared by dissolving the peptide raw materials in physiological saline according to a weight ratio of 0.1%. The eye drops comprising 0.1% TAT-N16 peptide were administered 2 drops, 3 times a day for 7 days. The blank control group received no treatment, and the solvent control group received physiological saline eye drops 2 drops, 3 times a day for 7 days. The normal eye group served as a normal control group.
1.3 Specimen collection and animal testing were conducted by the same individual. The examination time, location, illumination brightness, and temperature were consistent throughout the experiment. The rabbit conjunctiva appearance, fluorescein staining, tear film break-up time were analyzed using a slit lamp before and on days 4 and 7 after treatment; additionally, the Schirmer's test and conjunctival impression cytology (CIC) were carried out.

[6] = tested on: volunteers diagnosed with dry eye syndrome; test: Population experiment: volunteers with dry eye syndrome; format: in vivo, human; conditions: 0.1% eye drops, 1-2 drops
From the text: Currently, volunteers have been recruited to test the dry eye therapeutic effect of the 0.1% TAT-N16 peptide eye drops disclosed by the disclosure.

[7] = after 4 days of treatment, 0.1% eye drops four times a day
[8] = after 7 days of treatment, 0.1% eye drops four times a day
[9] = before treatment (baseline), drug treatment group, 0.1% eye drops
[10] = single cases, three (case 4: three to five) times a day

Substance: TAT-N16 peptide: cell-penetrating artificial peptide, sequence SEQ ID NO: 2, constructed by linking the peptide N16 to a TAT sequence; P55PIK inhibitor (YGRKKRRQRRRMMPYSTELIFYIEMDP)
- Corneal epithelial injury score compared with blank control group or solvent control group ([1]; 4 days of treatment, P>0.05): no statistically significant difference
- Corneal epithelial injury score compared with blank control group or solvent control group ([1]; 7 days of treatment, P<0.05): significantly lower
- Corneal epithelial injury scores (x ± s, n = 6) [1, 7]: 3.08 ± 1.43
- Corneal epithelial injury scores (x ± s, n = 6) [1, 8]: 0.84 ± 0.96
- Corneal epithelial injury scores (x ± s, n = 6) [1, 9]: 4.81 ± 1.61
- Tear secretion compared with the control groups ([2]; 4th and 7th day of treatment, P<0.05): significantly higher
- Schirmer's test II values (x ± s, n = 6) [2, 7]: 5.74 ± 1.59 mm
- Schirmer's test II values (x ± s, n = 6) [2, 8]: 8.58 ± 1.73 mm
- Schirmer's test II values (x ± s, n = 6) [2, 9]: 3.29 ± 1.34 mm
- Density of conjunctival goblet cells compared with blank control group and solvent control group ([3]; 7 days of continuous treatment, P<0.01, FIG. 4): significantly higher
- Number of conjunctival goblet cells (PAS-stained paraffin sections of the conjunctival fornix) ([3]; after treatment with the eye drops): increased significantly
- Tear film break-up time (BUT) values ([4]; 0 d / before treatment (baseline), drug treatment group): 8.24 ± 1.13 s
- Tear film break-up time (BUT) values ([4]; 4 d, 0.1% eye drops 2 drops, 3 times a day): 11.72 ± 1.27 s
- Tear film break-up time (BUT) values ([4]; 7 d, 0.1% eye drops 2 drops, 3 times a day): 15.31 ± 1.85 s
- Appearance of the rabbit conjunctiva ([5]; after 4 days of treatment): improved
- Dot-like and patchy fluorescein staining on the conjunctiva ([5]; after 4 days of treatment): decreased
- Appearance of the rabbit conjunctiva ([5]; after 7 days of treatment): appeared moist
- Fluorescein staining on the conjunctiva ([5]; after 7 days of treatment): no staining was observed
- Dry eye symptoms within three days of use ([6]; single case, three times a day): significantly improved
- Conjunctival congestion after a week of use [6, 10]: cleared up; also recorded: disappeared
- Dry eye symptoms after a week of use [6, 10]: essentially disappeared; also recorded: mostly disappeared; also recorded: disappeared completely; also recorded: largely eliminated
- Dry eye symptoms on the first day of use ([6]; single cases, three times a day): improved significantly; also recorded: significantly relief
